Data as given in patent US20210179577A1, “AROMATIC SULFONAMIDE DERIVATIVES FOR THE TREATMENT OF ISCHEMIC STROKE” (Bayer Aktiengesellschaft, priority 2017, published 2021).

What was measured:
human P2X4 = molecular target: T1, human P2X4 (Homo sapiens, UniProt Q99571); assay: Human P2X4 HEK Cell FLIPR Assay; type: cell-based; parameters: expressed in transfected cells; host or cells: HEK293; conditions: HEK293 cells, agonist Bz-ATP at EC80
T1 sequence (Q99571 1-388): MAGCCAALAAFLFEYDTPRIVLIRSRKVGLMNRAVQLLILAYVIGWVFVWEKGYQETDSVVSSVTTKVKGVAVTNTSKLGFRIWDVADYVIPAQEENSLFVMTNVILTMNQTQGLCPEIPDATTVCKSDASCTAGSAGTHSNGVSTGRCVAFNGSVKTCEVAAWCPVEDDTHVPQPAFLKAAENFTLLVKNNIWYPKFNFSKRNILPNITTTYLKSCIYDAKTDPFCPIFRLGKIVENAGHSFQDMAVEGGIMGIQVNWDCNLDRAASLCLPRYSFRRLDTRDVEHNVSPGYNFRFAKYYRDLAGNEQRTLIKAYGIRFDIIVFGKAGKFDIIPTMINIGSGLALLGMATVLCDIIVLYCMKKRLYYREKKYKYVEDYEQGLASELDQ
Description: HEK293 cells stably expressing human P2X4 were plated in poly-D-lysine-coated 384-well plates at a seeding density of 30000 cells/well and incubated overnight. P2X4 function was assessed by measuring intracellular calcium changes using the calcium-chelating dye Fluo8-AM (Molecular Devices) on a fluorescent imaging plate reader (FLEX/FLIPR station; Molecular Devices). On the day of the assay, the medium was removed and the cells were incubated for 30 min at 37° C. and 5% CO2 in 30 μL of dye buffer (Hank's balanced salt solution, 10 mM HEPES, 1.8 mM CaCl2, 1 mM MgCl2, 2 mM probenecid, 5 mM D-glucose monohydrate, 5 μM Fluo8-AM, pH=7.4). Compounds diluted in probenecid buffer (Hank's balanced salt solution, 10 mM HEPES, 1.8 mM CaCl2, 1 mM MgCl2, 2 mM probenecid, 5 mM D-glucose monohydrate, pH=7.4) were added in a volume of 10 μL and allowed to incubate for 30 min at room temperature. The final assay DMSO concentration was 0.5%. The agonist, Bz-ATP (Tocris), was added in a volume of 10 μL at a concentration representing the EC80 value. The EC80 value of Bz-ATP was determined each assay day prior to compound profiling. The fluorescence was measured for an interval of 120 sec at 2 sec intervals. The excitation and emission wavelengths used to monitor fluorescence were 470-495 nm and 515-575 nm, respectively. The data was analyzed based on the increase in peak relative fluorescence units (RFU) compared to the basal fluorescence and the data was normalized to the agonist control. The compounds were tested in triplicates per plate and mean values were plotted in Excel XL-Fit to determine IC50 values, percentage of maximal inhibition and the Hill coefficients.

hP2X4 = molecular target: T2, hP2X4 (Homo sapiens, UniProt Q99571); assay: Human P2X4 HEK Cell Electrophysiology Assay B (QPatch); type: cell-based; conditions: ATP 5 microM, -90 mV; read-out: Human P2X4 HEK Cells (QPatch Electrophysiology) avg IC50
T2 construct: expressed in transfected cells; host or cells: HEK-293 mito-Photina, clone 2a/4
T2 sequence (Q99571 1-388): T1 sequence (Q99571 1-388)
Description: Cell culture conditions: HEK-293 mito-Photina pcDNA3(neo-)/pPURO N/pcDNA3_P2RX4, clone 2a/4 (HEK-293 mito-Photina/hP2RX4) cells were cultured in EMEM Minimum Essential Medium Eagle with Earl's salts Balanced Salt Solution (BioWhittaker cat. BE12-125F) supplemented with 5 mL of 200 mM Ultraglutaminel (BioWhittaker cat. BE17-605E/U1), 5 mL of 100× Penicillin/Streptomycin (BioWhittaker cat. DE17-602E; final concentration 1%), 4 mL of 50 mg/mL G418 (Sigma cat. G8168-100 mL; final concentration 400 μg/mL), 10 μL of 10 mg/mL Puromicin (InvivoGen cat. ant-pr-1; final concentration 0.2 μg/mL) and 50 mL of Fetal Bovine Serum (Sigma cat. F7524; final concentration 10%).
Experimentalprotocol: HEK-293 cell lines are seeded 72 or 96 hours before experiment, at a concentration of 5 or 2.5 million cells, respectively onto a T225 flask. Just before the experiments cells are washed twice with D-PBS w/o Ca2+/Mg2+(Euroclone cat. ECB4004L) and detached from the flask with trypsin-EDTA (Sigma, cat. T4174 diluted 1/10). Cells are then re-suspended in the suspension solution: 25 mL EX-CELL ACF CHO medium (Sigma, cat. C5467); 0.625 mL HEPES (BioWhittaker, cat. BE17-737E); 0.25 mL of 100× Penicillin/Streptomycin (BioWhittaker, cat. DE17-602E), 0.1 mL of Soybean Trypsin Inhibitor 10 mg/mL (Sigma, cat. T6522) and placed on the QPatch 16X.
Compound preparation and storage: Compound stock solutions (10 mM; 100% DMSO; stored at −20° C.) were used. Fresh solutions from stock (1 or 3 mM, 100% DMSO) were prepared just before the experiments (0.1% final DMSO concentration).
Patch clamp analysis with QPatch16X (FIG. 1): Standard whole-cell voltage clamp experiments are performed at room temperature using the multihole technology.
For the voltage clamp experiments on hP2X4, data are sampled at 2 KHz. After establishment of the seal and the passage in the whole cell configuration, the cells are held at −90 mV and the hP2X4 current is evoked by the agonist in the absence (vehicle period, i.e. 0.1% DMSO) or in the presence of the compound under investigation at increasing concentrations; see the application protocol in FIG. 1.
Output: the maximum inward current induced by the agonist (ATP 5 microM).
The intracellular solution contained (mM) 135 CsF, 10 NaCl, 1 EGTA, 10 HEPES (pH 7.2 with CsOH) whereas the extracellular solution (mM) 145 NaCl, 4 KCl, 0.5 MgCl2, 1 CaCl2, […], 10 Glucose (pH 7.4 with NaOH).
For data collection, the Sophion software was used and the analysis was performed off-line using Excel and GraphPad Prism.
When possible, i.e. when the % of inhibition with the highest concentration tested was more than 50%, the dose-response curves data were fitted with the following equation:
[X is log of concentration; Y is normalized response (100% down to 0%, decreasing as X increases); Log IC50 same log units as X; HillSlope is unitless slope factor or hill slope]

| Compound | IC50 (human P2X4) [nM] | IC50 (hP2X4) [nM] |
| --- | --- | --- |
| NS(=O)(=O)c1cc(NC(=O)Cc2ccccc2Cl)ccc1-n1cc(C(F)(F)F)cn1 [Example 19, 2-(2-Chlorophenyl)-N-{3-sulfamoyl-4-[4-(trifluoromethyl)-1H-pyrazol-1-yl]phenyl}acetamide] | 47 | 278 |
| NS(=O)(=O)c1cc(NC(=O)Cc2ccccc2Cl)ccc1-n1cc(F)cn1 [Example 26, 2-(2-Chlorophenyl)-N-[4-(4-fluoro-1H-pyrazol-1-yl)-3-sulfamoylphenyl]acetamide] | 27 | 222 |
| N#Cc1cnn(-c2ccc(NC(=O)Cc3ccccc3Cl)cc2S(N)(=O)=O)c1 [Example 39, 2-(2-Chlorophenyl)-N-[4-(4-cyano-1H-pyrazol-1-yl)-3-sulfamoylphenyl]acetamide] | 32 |  |
| NS(=O)(=O)c1cc(NC(=O)Cc2ccccc2Cl)ccc1-c1cnn(C(F)F)c1 [Example 326, 2-(2-Chlorophenyl)-N-{4-[1-(difluoromethyl)-1H-pyrazol-4-yl]-3-sulfamoylphenyl}acetamide] | 17 | 51 |
| NS(=O)(=O)c1cc(NC(=O)Cc2ccccc2Cl)cnc1-n1cc(C(F)(F)F)cn1 [Example 380, 2-(2-Chlorophenyl)-N-{5-sulfamoyl-6-[4-(trifluoromethyl)-1H-pyrazol-1-yl]pyridin-3-yl}acetamide] | 299 | 157 |
